The source of these data is patent publication US20160067425A1, “DEVICES AND METHODS FOR TREATING TISSUES AND TISSUE CONDITIONS” (priority 2014, published 2016).

Data set [1] deals with basal cell carcinoma (BCC). The data set can be described thus: Intralesional treatment of clamp-isolated basal cell carcinoma on the ear lobe (Example 1). Format: in vivo, human. The method, then: A person with basal cell carcinoma (one year history of asymptomatic growth) on their left ear lobe was treated by mechanically isolating the basal cell carcinoma (BCC). Diagnosis of BCC was made based on the lesion's clinical presentation as a well-circumscribed pearly nodule with central crusted ulceration (see FIG. 14A) and the results of a shave biopsy (see FIG. 15A). The patient refused surgical therapy.
A chalazion clamp was used to isolate the tissue surrounding the BCC. One fifth unit (0.2 cc×1 unit/cc) of bleomycin in 1% lidocaine was injected into the clamped region (systemic bleomycin concentrations are typically in the range of 0.00023 units/mL or about 1000×lower). […] After 20 minutes, an 18-gauge needle was used to remove most of the injected fluid from the clamped area. The chalazion clamp was then removed.

For data set [2] the following is noted: typical systemic range, compared with 1 unit/cc injected; cited from earlier work.

For bleomycin, in data set [1] (0.2 unit intralesional in clamped region, 20 minutes), the “adverse effects / patient complaints” value is listed as “no adverse effects”. Also, the “retention of injected agent in the pressure isolated region” value in data set [1] (chalazion clamp, evidenced by localized raised and stretched area of the skin) is “remained within the clamped area”. In addition, the “clinical appearance of the BCC after treatment” value in data set [1] (patient, left ear lobe, 0.2 cc x 1 unit/cc in 1% lidocaine injected into chalazion-clamped region, removed after 20 minutes, 25-days post-treatment) is on record as “clinically cured”. In data set [1] (post-treatment punch biopsy, FIG. 15B), the “histology from 4 mm punch biopsy after treatment” value is on record as “confirm by histology”. Also, the “systemic concentrations typically used” value in data set [2] is listed as around 0.00023 units/mL.
